According to the supplement of paper PMC10307832:

What was measured:
Assay in all cases: relative viability (nuclei count vs DMSO), 5 days (fraction); higher = more cells survive
NCI-H1975 = test system: NCI-H1975
Summary of the method: (§1)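 After 5 days of treatment, lung cancer cells in 1536-well plates were fixed and stained in a single step (final 0.05% Triton X-100, 1% formaldehyde, 1 ug/ml Hoechst) and their nuclei counted on 4× images. Treatment had been applied by pin tool the day after seeding as one drug alone or as a fixed anchor-drug dose with five library-drug doses (not always all listed) in √10 steps. Relative viability is the nuclei count of treated wells divided by that of vehicle wells, and values are medians of duplicate plates.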

NCI-H2085 = test system: NCI-H2085
Summary of the method: as §1

NCI-H2126 = test system: NCI-H2126
Summary of the method: as §1

NCI-H23 = test system: NCI-H23
Summary of the method: as §1

NCI-H2405 = test system: NCI-H2405
Summary of the method: as §1

NCI-H3122 = test system: NCI-H3122
Summary of the method: as §1

NCI-H322M = test system: NCI-H322M
Summary of the method: as §1

RERF-LC-KJ = test system: RERF-LC-KJ
Summary of the method: as §1

SK-LU-1 = test system: SK-LU-1
Summary of the method: as §1

SW 1573 = test system: SW 1573
Summary of the method: as §1

SW 900 = test system: SW 900
Summary of the method: as §1

NC(=O)Nc1cc(-c2cccc(F)c2)sc1C(=O)N[C@H]1CCCNC1 [AZD7762] + CCNC(=O)c1noc(-c2cc(C(C)C)c(O)cc2O)c1-c1ccc(CN2CCOCC2)cc1 [Luminespib] (partner 0.01 µM)
relative viability (NCI-H1975; first compound 0.01 µM): 0.21 | relative viability (NCI-H1975; first compound 0.03162 µM): 0.201 | relative viability (NCI-H1975; first compound 0.1 µM): 0.0969 | relative viability (NCI-H1975; first compound 0.3162 µM): 0.173 | relative viability (NCI-H1975; first compound 1 µM): 0.127 | relative viability (NCI-H2085; first compound 0.01 µM): 0.47 | relative viability (NCI-H2085; first compound 0.03162 µM): 0.468 | relative viability (NCI-H2085; first compound 0.1 µM): 0.475 | relative viability (NCI-H2085; first compound 0.3162 µM): 0.459 | relative viability (NCI-H2085; first compound 1 µM): 0.374 | relative viability (NCI-H2126; first compound 0.01 µM): 0.922 | relative viability (NCI-H2126; first compound 0.03162 µM): 0.914 | relative viability (NCI-H2126; first compound 0.1 µM): 0.833 | relative viability (NCI-H2126; first compound 0.3162 µM): 0.802 | relative viability (NCI-H2126; first compound 1 µM): 0.456 | relative viability (NCI-H23; first compound 0.01 µM): 0.226 | relative viability (NCI-H23; first compound 0.03162 µM): 0.189 | relative viability (NCI-H23; first compound 0.1 µM): 0.194 | relative viability (NCI-H23; first compound 0.3162 µM): 0.206 | relative viability (NCI-H23; first compound 1 µM): 0.194 | relative viability (NCI-H2405; first compound 0.01 µM): 0.823 | relative viability (NCI-H2405; first compound 0.03162 µM): 0.707 | relative viability (NCI-H2405; first compound 0.1 µM): 0.784 | relative viability (NCI-H2405; first compound 0.3162 µM): 0.672 | relative viability (NCI-H2405; first compound 1 µM): 0.33 | relative viability (NCI-H3122; first compound 0.01 µM): 0.0859 | relative viability (NCI-H3122; first compound 0.03162 µM): 0.0843 | relative viability (NCI-H3122; first compound 0.1 µM): 0.109 | relative viability (NCI-H3122; first compound 0.3162 µM): 0.0927 | relative viability (NCI-H3122; first compound 1 µM): 0.0813 | relative viability (NCI-H322M; first compound 0.01 µM): 0.851 | relative viability (NCI-H322M; first compound 0.03162 µM): 0.827 | relative viability (NCI-H322M; first compound 0.1 µM): 0.357 | relative viability (NCI-H322M; first compound 0.3162 µM): 0.248 | relative viability (NCI-H322M; first compound 1 µM): 0.245 | relative viability (RERF-LC-KJ; first compound 0.01 µM): 1.41 | relative viability (RERF-LC-KJ; first compound 0.03162 µM): 1.38 | relative viability (RERF-LC-KJ; first compound 0.1 µM): 1.21 | relative viability (RERF-LC-KJ; first compound 0.3162 µM): 1.2 | relative viability (RERF-LC-KJ; first compound 1 µM): 1.02 | relative viability (SK-LU-1; first compound 0.01 µM): 0.193 | relative viability (SK-LU-1; first compound 0.03162 µM): 0.209 | relative viability (SK-LU-1; first compound 0.1 µM): 0.192 | relative viability (SK-LU-1; first compound 0.3162 µM): 0.206 | relative viability (SK-LU-1; first compound 1 µM): 0.123 | relative viability (SW 1573; first compound 0.01 µM): 0.885 | relative viability (SW 1573; first compound 0.03162 µM): 0.272 | relative viability (SW 1573; first compound 0.1 µM): 0.166 | relative viability (SW 1573; first compound 0.3162 µM): 0.169 | relative viability (SW 1573; first compound 1 µM): 0.161 | relative viability (SW 900; first compound 0.01 µM): 0.182 | relative viability (SW 900; first compound 0.03162 µM): 0.18 | relative viability (SW 900; first compound 0.1 µM): 0.201 | relative viability (SW 900; first compound 0.3162 µM): 0.159 | relative viability (SW 900; first compound 1 µM): 0.146
